# Assays:
# citrate synthase = settings: Angew. Chem., 92, 133/1980; cited from earlier work
# HMG-CoA-reductase = settings: cited from earlier work
# HMG-CoA synthase = settings: J. Biol. Chem., 257, 2842/1982; cited from earlier work
# Rat hepatocytes = assay: 14C-acetate incorporation into cholesterol (cholesterol biosynthesis) in rat hepatocytes; type: cell-based; settings: Hepatocyte, end concentration about 10^-5 M, 48 h incubation, DMSO, related to solvent treated control
# Procedure: Rat hepatocytes were isolated according to Berry and Friend (J. Cell Biol., 43, 506-520 (1969)) and cultured as described by Davis et al. (J. Biol. Chem., 254, 2010-2016 (1979)). 2-^14 C-Acetate was used as a precursor for determination of the cholesterol biosynthesis. Newly synthetized cholesterol was determined by liquid scintillation spectrometry after extraction of radiolabelled sterols from the culture medium (Can. J. Biochem. Physiol., 37, 912-917 (1959)). The test compounds were dissolved in dimethylsulfoxide. 1 μl of this solution was given to 1 ml of the culture medium. The percentage of inhibition of ^14 C-acetate incorporation is related to a solvent treated control.
# The compounds listed in the following table were tested with respect to their effect on the rate hepatocytes according to the method mentioned above. The compounds were dissolved in DMSO. 1 μl of this solution was added to 1 ml of the culture medium.
# The end concentration was about 10^-5 M, the period of the incubation was 48 h. The ^14 C-acetate incorporation in cholesterol was determined.
SMILES,inhibition at 10 µM (Rat hepatocytes),also measured
"CC(C)(COP(=O)(O)OP(=O)(O)OC[C@H]1O[C@@H](n2cnc3c(N)ncnc32)[C@H](O)[C@@H]1OP(=O)(O)O)[C@@H](O)C(=O)NCCC(=O)NCCSCCC(O)(CC(=O)O)C(=O)O (stereo partly drawn) [3,4-dicarboxy-3-hydroxybutylcoenzyme A]",–,inhibiting action on the enzyme citrate synthase (in words) (citrate synthase): exerts an inhibiting action
CC(O)(CCSCCNC(=O)CCNC(=O)[C@H](O)C(C)(C)COP(=O)(O)OP(=O)(O)OC[C@H]1O[C@@H](n2cnc3c(N)ncnc32)[C@H](O)[C@@H]1OP(=O)(O)O)CC(=O)O (stereo partly drawn) [3-hydroxy-3-methyl-4-carboxybutyl-coenzyme A],–,"inhibiting action on the enzyme HMG-CoA-reductase (in words) (HMG-CoA-reductase; FEBS Letters, 128, 145/1981): possesses an inhibiting action"
CC(=O)CCSCCNC(=O)CCNC(=O)[C@H](O)C(C)(C)COP(=O)(O)OP(=O)(O)OC[C@H]1O[C@@H](n2cnc3c(N)ncnc32)[C@H](O)[C@@H]1OP(=O)(O)O [3-oxobutyl-coenzyme A],–,substrate for HMG-CoA synthase (in words) (HMG-CoA synthase): substrate
"CC[C@H](C)C(=O)O[C@H]1CCC=C2C=C[C@H](C)[C@H](CC[C@@H]3C[C@@H](O)CC(=O)O3)[C@H]21 [Compactin, 2-Methylbutanoic acid 1,2,3,7,8,8α-hexahydro-7-methyl-8-[2-(tetrahydro-4-hydroxy-6-oxo-2H-pyran-2-yl)ethyl]-1-naphthalenyl ester]",59%,inhibitor of HMG-CoA reductase (in words) (HMG-CoA-reductase; comparison compound): potent inhibitor
"CC(O)(CCSCCNC(=O)CCNC(=O)C(O)C(C)(C)CO)CC(=O)O (stereo not drawn) [Example 2, 9,13-Diaza-10,14-dioxo-6-thia-3,15,17-trihydroxy-3,16,16-trimethylheptadecanoic acid]",33%,–
"CCOC(=O)CC(C)(C)CCSCCNC(=O)CCNC(=O)C(O)C(C)(C)CO (stereo not drawn) [Example 11, 9,13-Diaza-15,17-dihydroxy-10,14-dioxo-3,3,16,16-tetramethyl-6-thiaheptadecanoic acid ethyl ester]",28%,–
"CC(CC(=O)NCCSCCC(C)(C)CC(=O)O)NC(=O)c1ccccc1 (stereo not drawn) [Example 15d, 9,13-diaza-10,14-dioxo-14-phenyl-6-thia-3,3,12-trimethyltetradecanoicacid]",12%,–
"O=C(O)CCCCSCCNC(=O)CNCc1ccccc1 [Example 16, 9,12-Diaza-10-oxo-13-phenyl-6-thiatridecanoic acid]",10%,–

# Reference: patent publication US4609673A, “Carboxylic acid derivatives, processes for the preparation thereof and pharmaceutical compositions containing them” (Boehringer Mannheim GmbH, priority 1984, dated 1986)
